Patent US20090137572A1, “2-substituted-4-heteroaryl-pyrimidines useful for the treatment of proliferative disorders” (priority 2004, published 2009)

What was measured:
CDK7/cyclin H = CDK7/cyclin H (Homo sapiens, UniProt P50613); assay: CDK 7 assay (CTD peptide substrate); format: biochemical; details: read-out: Kinase Inhibition pIC50 CDK7-cyclin H (converted)
Procedure: (§1) Kinase assays. The compounds of the invention above were investigated for their ability to inhibit the enzymatic activity of various protein kinases (Table 2). This was achieved by measurement of incorporation of radioactive phosphate from ATP into appropriate polypeptide substrates. Recombinant protein kinases and kinase complexes were produced or obtained commercially. Assays were performed using 96-well plates and appropriate assay buffers (typically 25 mM β-glycerophosphate, 20 mM MOPS, 5 mM EGTA, 1 mM DTT, 1 mM […], pH 7.4), into which were added 2-4 μg of active enzyme with appropriate substrates. The reactions were initiated by addition of Mg/ATP mix (15 mM MgCl2+100 μM ATP with 30-50 kBq per well of [γ-^32P]-ATP) and mixtures incubated as required at 30° C. Reactions were stopped on ice, followed by filtration through p81 filterplates or GF/C filterplates (Whatman Polyfiltronics, Kent, UK). After washing 3 times with 75 mM aq orthophosphoric acid, plates were dried, scintillant added and incorporated radioactivity measured in a scintillation counter (TopCount, Packard Instruments, Pangbourne, Berks, UK). Compounds for kinase assay were made up as 10 mM stocks in DMSO and diluted into 10% DMSO in assay buffer.
(§2) CDK 7 and 9 assays. CTD peptide substrate (biotinyl-Abx-(Tyr-Ser-Pro-Thr-Ser-Pro-Ser)4-NH2; 1-2 mg/mL) and recombinant human CDK7/cyclin H, CDK9/cyclin T1, or CDK9/cyclin K (0.5-2 μg) were incubated for 45 min at 30° C. in the presence of varying amounts of test compound in 20 mM MOPS pH 7.2, 25 mM β-glycerophosphate, 5 mM EGTA, 1 mM DTT, 1 mM sodium vanadate, 15 mM MgCl2, and 100 μM ATP (containing a trace amount of ^32PγATP) in a total volume of 25 μL in a 96-well microtiter plate. The reaction was stopped by placing the plate on ice for 2 min. Avidin (50 μg) was added to each well, and the plate was incubated at room temp for 30 min. The samples were transferred to a 96-well P81 filter plate, and washed (4×200 μL per well) with 75 mM phosphoric acid. Microscint 40 scintillation liquid (50 μL) was added to each well, and the amount of ^32P incorporation for each sample was measured using a Packard Topcount microplate scintillation counter.

CDK9/cyclin T1 = CDK9/cyclin T1 (Homo sapiens, UniProt P50750); assay: CDK 9 assay (CTD peptide substrate); format: biochemical; details: read-out: Kinase Inhibition pIC50 CDK9-cyclin T1 (converted)
Procedure: as §1, §2

[1] = molecular target: T1, Flt3 (FMS-like tyrosine kinase-3) (Homo sapiens, UniProt P36888); assay: Kinase assay (radioactive phosphate incorporation), Flt3; format: biochemical; details: pIC50 is -log(IC50, M), read-out: Kinase Inhibition pIC50 Flt3 (converted)
T1 sequence (P36888 27-993): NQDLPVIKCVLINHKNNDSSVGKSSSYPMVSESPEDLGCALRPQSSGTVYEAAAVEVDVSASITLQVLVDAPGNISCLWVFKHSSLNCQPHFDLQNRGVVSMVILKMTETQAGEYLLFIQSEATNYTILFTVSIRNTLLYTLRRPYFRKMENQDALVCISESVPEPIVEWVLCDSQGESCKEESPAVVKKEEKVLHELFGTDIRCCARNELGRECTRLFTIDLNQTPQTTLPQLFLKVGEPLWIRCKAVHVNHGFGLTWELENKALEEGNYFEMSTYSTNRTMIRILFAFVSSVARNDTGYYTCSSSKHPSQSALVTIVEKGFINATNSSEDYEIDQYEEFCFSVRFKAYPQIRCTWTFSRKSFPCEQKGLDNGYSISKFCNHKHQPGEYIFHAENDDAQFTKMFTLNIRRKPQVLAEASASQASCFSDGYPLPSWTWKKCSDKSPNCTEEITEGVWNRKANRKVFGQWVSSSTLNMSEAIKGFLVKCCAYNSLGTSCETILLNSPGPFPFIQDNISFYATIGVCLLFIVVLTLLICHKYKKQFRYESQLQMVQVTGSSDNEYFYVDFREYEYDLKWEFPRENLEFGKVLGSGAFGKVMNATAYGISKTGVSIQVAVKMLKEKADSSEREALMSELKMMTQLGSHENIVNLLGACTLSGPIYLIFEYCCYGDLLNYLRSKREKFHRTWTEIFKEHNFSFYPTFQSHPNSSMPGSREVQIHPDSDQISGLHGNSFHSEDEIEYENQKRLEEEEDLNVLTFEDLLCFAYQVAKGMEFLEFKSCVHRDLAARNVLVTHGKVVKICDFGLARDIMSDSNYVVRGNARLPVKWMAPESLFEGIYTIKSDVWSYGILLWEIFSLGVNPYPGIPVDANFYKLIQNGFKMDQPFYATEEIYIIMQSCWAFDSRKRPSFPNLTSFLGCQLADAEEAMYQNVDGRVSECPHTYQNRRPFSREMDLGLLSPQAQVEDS
Procedure: as §1

Aurora A kinase = molecular target: T2, Aurora A kinase (Homo sapiens, UniProt O14965); assay: Aurora-A (human) kinase assay (Kemptide substrate); format: biochemical; details: pIC50 is -log(IC50, M); 15 μM ATP; read-out: Kinase Inhibition pIC50 Aurora A kinase (converted)
T2 construct: purchased
T2 sequence (O14965 1-403): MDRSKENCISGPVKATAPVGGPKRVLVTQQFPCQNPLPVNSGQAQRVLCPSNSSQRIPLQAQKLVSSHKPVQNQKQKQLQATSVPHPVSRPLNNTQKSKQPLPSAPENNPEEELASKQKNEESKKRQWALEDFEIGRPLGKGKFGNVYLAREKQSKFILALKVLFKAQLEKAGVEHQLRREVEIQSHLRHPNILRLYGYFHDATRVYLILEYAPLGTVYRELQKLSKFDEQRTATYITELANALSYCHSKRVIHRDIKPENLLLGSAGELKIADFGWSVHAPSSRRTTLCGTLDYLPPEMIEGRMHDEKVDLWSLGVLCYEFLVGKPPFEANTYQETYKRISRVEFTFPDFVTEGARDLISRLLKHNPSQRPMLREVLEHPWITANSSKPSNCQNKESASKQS
Outline: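 Kemptide (LRRASLG, 200 μM) phosphorylation by 5-10 ng commercial aurora-A measured as [γ-33P] incorporation at 15 μM ATP with 10 mM Mg acetate, pH 7.0 MOPS buffer. Reaction ran 40 min at room temperature; acid-stopped, captured on P81 filters, scintillation read.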

CDK2-cycline E = CDK2-cycline E (Homo sapiens, UniProt P24941); assay: Kinase assay (radioactive phosphate incorporation), CDK2-cyclin E; format: biochemical; details: read-out: Kinase Inhibition pIC50 CDK2-cycline E (converted)
Outline: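 Inhibition was measured as transfer of radiolabelled phosphate from [γ-32P]-ATP (100 μM ATP, 15 mM MgCl2) onto polypeptide substrates by recombinant kinases or kinase complexes. Reactions ran at 30° C in MOPS/β-glycerophosphate buffer, pH 7.4, were stopped on ice and filtered before scintillation counting.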

CDK7/cyclin H, sequence (P50613 whole entry): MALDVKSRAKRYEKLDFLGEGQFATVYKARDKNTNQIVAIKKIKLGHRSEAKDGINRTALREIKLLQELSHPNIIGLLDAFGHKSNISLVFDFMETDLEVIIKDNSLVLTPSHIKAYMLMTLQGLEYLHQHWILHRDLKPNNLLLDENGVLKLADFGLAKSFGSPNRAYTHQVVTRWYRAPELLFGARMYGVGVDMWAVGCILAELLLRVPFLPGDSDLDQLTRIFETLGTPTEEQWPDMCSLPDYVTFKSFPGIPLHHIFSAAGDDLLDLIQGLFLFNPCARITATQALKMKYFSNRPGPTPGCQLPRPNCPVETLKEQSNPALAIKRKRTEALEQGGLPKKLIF
CDK7/cyclin H, sequence (P51946 whole entry partner): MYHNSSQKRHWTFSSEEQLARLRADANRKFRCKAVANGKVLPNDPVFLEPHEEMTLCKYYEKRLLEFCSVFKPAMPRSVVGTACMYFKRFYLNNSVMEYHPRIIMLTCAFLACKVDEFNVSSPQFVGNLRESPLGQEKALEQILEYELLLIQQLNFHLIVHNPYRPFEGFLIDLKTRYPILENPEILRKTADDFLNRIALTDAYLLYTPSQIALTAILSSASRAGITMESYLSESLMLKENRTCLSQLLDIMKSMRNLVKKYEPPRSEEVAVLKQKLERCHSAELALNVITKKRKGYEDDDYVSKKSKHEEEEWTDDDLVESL
CDK9/cyclin T1, sequence (P50750 whole entry): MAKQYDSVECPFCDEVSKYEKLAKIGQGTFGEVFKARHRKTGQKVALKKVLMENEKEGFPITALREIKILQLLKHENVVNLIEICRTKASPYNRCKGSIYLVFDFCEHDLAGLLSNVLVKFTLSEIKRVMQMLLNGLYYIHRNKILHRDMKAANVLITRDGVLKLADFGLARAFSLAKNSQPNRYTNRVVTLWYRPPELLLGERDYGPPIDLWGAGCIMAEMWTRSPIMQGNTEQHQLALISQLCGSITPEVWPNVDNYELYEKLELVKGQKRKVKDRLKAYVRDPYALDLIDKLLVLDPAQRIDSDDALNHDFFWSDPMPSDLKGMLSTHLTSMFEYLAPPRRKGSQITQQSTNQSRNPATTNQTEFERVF
CDK9/cyclin T1, sequence (O60563 whole entry partner): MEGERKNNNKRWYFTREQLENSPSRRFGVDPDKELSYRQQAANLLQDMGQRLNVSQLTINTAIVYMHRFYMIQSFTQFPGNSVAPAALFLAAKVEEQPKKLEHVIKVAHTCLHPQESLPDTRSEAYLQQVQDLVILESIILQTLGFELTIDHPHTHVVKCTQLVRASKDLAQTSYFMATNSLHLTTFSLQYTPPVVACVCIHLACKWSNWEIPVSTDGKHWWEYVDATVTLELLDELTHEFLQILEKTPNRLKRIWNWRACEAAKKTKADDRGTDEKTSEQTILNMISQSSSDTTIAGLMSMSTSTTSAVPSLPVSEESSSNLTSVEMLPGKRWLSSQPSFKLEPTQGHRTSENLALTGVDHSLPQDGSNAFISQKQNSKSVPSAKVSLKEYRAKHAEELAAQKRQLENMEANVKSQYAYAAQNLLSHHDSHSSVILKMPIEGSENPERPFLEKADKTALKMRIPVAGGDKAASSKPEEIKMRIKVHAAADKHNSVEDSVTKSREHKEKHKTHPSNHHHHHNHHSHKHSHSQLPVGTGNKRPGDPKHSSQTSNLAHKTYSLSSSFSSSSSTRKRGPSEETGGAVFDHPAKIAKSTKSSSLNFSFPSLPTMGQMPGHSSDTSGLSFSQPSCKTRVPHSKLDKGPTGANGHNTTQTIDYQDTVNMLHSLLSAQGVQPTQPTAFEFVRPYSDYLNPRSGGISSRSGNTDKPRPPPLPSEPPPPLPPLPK

SMILES	melting point	IC50 (CDK7/cyclin H)	IC50 (CDK9/cyclin T1)	IC50 [1]	IC50 (Aurora A kinase)	IC50 (CDK2-cycline E)
CCNc1nc(C)c(-c2ccnc(Nc3cc(Cl)c(N4CCOCC4)c(Cl)c3)n2)s1 [Compound 133, (3,5-Dichloro-4-morpholin-4-yl-phenyl)-[4-(2-ethylamino-4-methyl-thiazol-5-yl)-pyrimidin-2-yl]-amine]	> 300 °C	–	–	–	–	–
COc1cc(Nc2nccc(-c3sc(C)nc3C)n2)cc(OC)c1OC [Compound 25, [4-(2,4-Dimethyl-thiazol-5-yl)-pyrimidin-2-yl]-(3,4,5-trimethoxy-phenyl)-amine]	–	3.16 µM	2 µM	0.0631 µM	0.02 µM	–
Cc1nc(C)c(-c2ccnc(Nc3ccc(O)c(CN4CCOCC4)c3)n2)s1 [Compound 151, 4-[4-(2,4-Dimethyl-thiazol-5-yl)-pyrimidin-2-ylamino]-2-morpholin-4-ylmethyl-phenol]	–	–	–	0.0631 µM	0.0631 µM	0.2 µM
Cc1nc(N(C)c2cccnc2)sc1-c1ccnc(Nc2ccc(N3CCOCC3)cc2)n1 [Compound 162, {4-[4-Methyl-2-(methyl-pyridin-3-yl-amino)-thiazol-5-yl]-pyrimidin-2-yl}-(4-morpholin-4-yl-phenyl)-amine]	–	–	3.16 µM	0.0631 µM	0.126 µM	3.16 µM
COc1cc(Nc2nccc(-c3sc(N)nc3C)n2)cc(OC)c1OC [Compound 168, [4-(2-Amino-4-methyl-thiazol-5-yl)-pyrimidin-2-yl]-(3,4,5-trimethoxy-phenyl)-amine]	–	1.26 µM	0.316 µM	0.00501 µM	0.0316 µM	0.398 µM
COCCOC(=O)Cc1cccc(Nc2nccc(-c3sc(N)nc3C)n2)c1 [Compound 1, {3-[4-(2-Amino-4-methyl-thiazol-5-yl)-pyrimidin-2-ylamino]-phenyl}-acetic acid 2-methoxy-ethyl ester]	–	3.16 µM	–	0.126 µM	–	1 µM
Cc1nc(-c2cccnc2)sc1-c1ccnc(Nc2ccc(N3CCOCC3)c(Cl)c2)n1 [Compound 127, (3-Chloro-4-morpholin-4-yl-phenyl)-[4-(4-methyl-2-pyridin-3-yl-thiazol-5-yl)-pyrimidin-2-yl]-amine]	230 to 231 °C	–	–	–	–	–
Cc1nc(Nc2ccccc2)sc1-c1ccnc(Nc2ccc(N3CCOCC3)cc2)n1 [Compound 167, [4-(4-Methyl-2-phenylamino-thiazol-5-yl)-pyrimidin-2-yl]-(4-morpholin-4-yl-phenyl)-amine]	290 to 291 °C	–	–	–	–	–
Cc1nc(-c2nc(C)c(-c3ccnc(Nc4cc(Cl)c(N5CCOCC5)c(Cl)c4)n3)s2)cs1 [Compound 137, (3,5-Dichloro-4-morpholin-4-yl-phenyl)-[4-(4,2′-dimethyl-[2,4′]bithiazolyl-5-yl)-pyrimidin-2-yl]-amine]	> 300 °C	–	–	–	–	–
CNc1nc(C)c(-c2ccnc(Nc3cc(OC)cc(OC)c3)n2)s1 [Compound 170, (3,5-Dimethoxy-phenyl)-[4-(4-methyl-2-methylamino-thiazol-5-yl)-pyrimidin-2-yl]-amine]	–	–	–	0.01 µM	0.0631 µM	0.316 µM
Cc1nc(C)c(-c2ccnc(Nc3ccc(CN4CCOCC4)cc3)n2)s1 [Compound 174, [4-(2,4-Dimethyl-thiazol-5-yl)-pyrimidin-2-yl]-(4-morpholin-4-ylmethyl-phenyl)-amine]	–	0.251 µM	1 µM	0.158 µM	0.1 µM	1.26 µM
CCNc1nc(C)c(-c2ccnc(Nc3ccc(N4CC(C)OC(C)C4)cc3)n2)s1 (centres unmarked) [Compound 169, [4-(2,6-Dimethyl-morpholin-4-yl)-phenyl]-[4-(2-ethylamino-4-methyl-thiazol-5-yl)-pyrimidin-2-yl]-amine]	–	–	3.16 µM	0.0398 µM	0.0501 µM	1.58 µM
COc1cc(Nc2nccc(-c3sc(-c4cccnc4)nc3C)n2)cc(OC)c1 [Compound 155, (3,5-Dimethoxy-phenyl)-[4-(4-methyl-2-pyridin-3-yl-thiazol-5-yl)-pyrimidin-2-yl]-amine]	229 to 230 °C	–	–	–	–	–
COc1cc(Nc2nccc(-c3sc(Nc4ccccc4)nc3C)n2)cc(OC)c1 [Compound 171, (3,5-Dimethoxy-phenyl)-[4-(4-methyl-2-phenylamino-thiazol-5-yl)-pyrimidin-2-yl]-amine]	191 to 194 °C	–	–	–	–	–
Cc1nc(C)c(-c2ccnc(Nc3ccc(N4CC(C)OC(C)C4)cc3)n2)s1 (centres unmarked) [Compound 121, [4-(2,6-Dimethyl-morpholin-4-yl)-phenyl]-[4-(2,4-dimethyl-thiazol-5-yl)-pyrimidin-2-yl]-amine]	–	–	3.98 µM	0.398 µM	0.0398 µM	5.01 µM
Cc1nc(NCc2ccccc2)sc1-c1ccnc(Nc2ccc(N3CCOCC3)cc2)n1 [Compound 117, [4-(2-Benzylamino-4-methyl-thiazol-5-yl)-pyrimidin-2-yl]-(4-morpholin-4-yl-phenyl)-amine]	180 to 183 °C	–	–	–	–	–
COc1cc(Nc2nccc(-c3sc(C)nc3C)n2)cc(OC)c1 [Compound 175, (3,5-Dimethoxy-phenyl)-[4-(2,4-dimethyl-thiazol-5-yl)-pyrimidin-2-yl]-amine]	–	5.01 µM	1.58 µM	0.0398 µM	0.0794 µM	1.26 µM
